Data reported in patent EP0855398B1, “SESQUITERPENE DERIVATIVES HAVING ANTIVIRAL ACTIVITY” (SHIONOGI & CO., LTD., priority 1995, dated 1997).
Values after ≈ are worked out from the molar mass of the structure shown.

Assays:
[1] = system: Influenza virus A/WSN/33 (H1N1); experiment: microbe, parasite or virus in culture; format: cell-based; details: 72 h; viral strain: Influenza virus A/WSN/33 (H1N1); Cell: MDBK; […]; 3 days; read-out: IC50
in vitro = details: bovine; for CC50 at 72 h: mdbk cells

SMILES	IC50 [1] [µg/mL]	CC50 at 72 h (in vitro) [µg/mL]	CC50 (in vitro) [µg/mL]
C[C@H]1CC[C@H]2C(C)(C)[C@@H](O)CC[C@]23Oc2c(c(O)cc4c2CNC4=O)C[C@]13C [(2)]	0.001 (≈ 0.00259 µM)	25 (≈ 64.9 µM)	
C[C@H]1CC[C@H]2C(C)(C)[C@@H](O)CC[C@]23Oc2c(c(O)cc4c2C(=O)NC4=O)C[C@]13C [(32a), (6aR, 7S, 9aS, 115, 13aS)-2,3,6,6a, 7,8,9,9a, 10, 11, 12, 13-dodecahydro-5, 11-dihydroxy-6a, 7, 30, 10-tetramethyl-13-dioxo-1H-benzo[8,8a][1]benzopyrano[2,3-e]isoindole]	0.001 to 0.002 (≈ 0.0025 to 0.00501 µM)	20 (≈ 50.1 µM)	
C[C@H]1CC[C@H]2C(C)(C)[C@H](OS(C)(=O)=O)CC[C@]23Oc2c(c(O)cc4c2CNC4=O)C[C@]13C [Compound (13b), (6a R, 7 S, 9a S, 11 R, 13a S)-2,3,6,6a, 7,8,9,9a, 10, 11, 12, 13-dodecahydro-5-hydroxy-6a, 7, 10, 10-tetramethyl-11-methanesulfonyloxy-3-oxo-1H-benzo[8,8a][1]benzopyrano[2,3-e]isoindole]	0.02 (≈ 0.0431 µM)		5 (≈ 10.8 µM)
C[C@H]1CC[C@H]2C(C)(C)[C@H](OS(=O)(=O)c3ccccc3)CC[C@]23Oc2c(c(O)cc4c2CNC4=O)C[C@]13C [Compound (13d), (6a R, 7 S, 9a S, 11 R, 13a S)-2,3,6,6a, 7,8,9,9a, 10, 11, 12, 13-dodecahydro-5-hydroxy-6a, 7, 10, 10-tetramethyl-3-oxo-11-phenylsulfonyloxy-1H-benzo[8,8a][1]benzopyrano[2,3-e]isoindole]	0.02 to 0.06 (≈ 0.038 to 0.114 µM)		10 (≈ 19 µM)
C[C@H]1CC[C@H]2C(C)(C)[C@@H](O)CC[C@]23Oc2c(c(O)cc4c2CN(C)C4=O)C[C@]13C [Compound (28a), (6aR, 7S, 9aS, 11S, 13aS)-2,3,6,6a, 7,8,9,9a, 10, 11, 12, 13-dodecahydro-5, 11-dihydroxy-2,6a, 7, 10, 10-pentamethyl-3-oxo-1H-benzo[8,8a][1]benzopyrano[2,3-e]isoindole]	0.02 (≈ 0.0501 µM)		10 to 20 (≈ 25 to 50.1 µM)
CCCCN1Cc2c(cc(O)c3c2O[C@@]24CC[C@H](O)C(C)(C)[C@@H]2CC[C@H](C)[C@@]4(C)C3)C1=O [Compound (28b), (6aR, 7S, 9aS, 11S, 13aS)-2-butyl-2,3,6,6a, 7,8,9,9a, 10, 11, 12, 13-dodecahydro-5, 11-dihydroxy-6a, 7, 10, 10-tetramethyl-3-oxo-1H-benzo[8,8a][1]benzopyrano[2,3-e]isoindole]	0.02 (≈ 0.0453 µM)		2.5 (≈ 5.66 µM)
C[C@H]1CC[C@H]2C(C)(C)[C@@H](O)CC[C@]23Oc2c(c(O)cc4c2CN(S(C)(=O)=O)C4=O)C[C@]13C [Compound (28e), (6aR, 7S, 9aS, 11S, 13aS)-2,3,6,6a, 7,8,9,9a, 10, 11, 12, 13-dodecahydro-5, 11-dihydroxy-6a, 7, 10, 10-tetramethyl-2-methanesulfonyl-3-oxo-1H-benzo[8,8a][1]benzopyrano[2,3-e]isoindole]	0.03 (≈ 0.0647 µM)		> 10
CC(=O)N1Cc2c(cc(O)c3c2O[C@@]24CC[C@H](O)C(C)(C)[C@@H]2CC[C@H](C)[C@@]4(C)C3)C1=O [Compound (28f), (6aR, 7S, 9aS, 115, 13aS)-2-acetyl-2,3,6,6a, 7,8,9,9a, 10, 11, 12, 13-dodecahydro-5,11-dihydroxy-6a, 7, 10, 10-tetramethyl-3-oxo-1H-benzo[8,8a][1]benzopyrano[2,3-e]isoindole]	0.02 (≈ 0.0468 µM)	> 10	
C[C@H]1CC[C@H]2C(C)(C)[C@@H](O)CC[C@]23Oc2c(c(O)cc4c2C(O)NC4=O)C[C@]13C (stereo partly drawn) [Compound (30a), (6aR, 7S, 9aS, 11S, 13aS)-2,3,6,6a, 7,8,9,9a, 10, 11, 12, 13-dodecahydro-1,5, 11-trihydroxy-6a, 7, 10, 10-tetramethyl-3-oxo-1H-benzo[8,8a][1]benzopyrano[2,3-e]isoindole]	0.002 (≈ 0.00498 µM)		> 40
COC1NC(=O)c2cc(O)c3c(c21)O[C@@]12CC[C@H](O)C(C)(C)[C@@H]1CC[C@H](C)[C@@]2(C)C3 (stereo partly drawn) [Compound (30b), (6aR, 7S, 9aS, 11S, 13aS)-2,3,6,6a, 7,8,9,9a, 10, 11, 12, 13-dodecahydro-5, 11-dihydroxy-1-methoxy-6a, 7, 10, 10-tetramethyl-3-oxo-1H-benzo[8,8a][1]benzopyrano[2,3-e]isoindole]	0.04 (≈ 0.0963 µM)		20 (≈ 48.1 µM)
CCCOC1NC(=O)c2cc(O)c3c(c21)O[C@@]12CC[C@H](O)C(C)(C)[C@@H]1CC[C@H](C)[C@@]2(C)C3 (stereo partly drawn) [Compound (30c), (6aR, 7S, 9aS, 11S, 13aS)-2,3,6,6a, 7,8,9,9a, 10, 11, 12, 13-dodecahydro-5, 11-dihydroxy-1-propoxy-6a, 7, 10, 10-tetramethyl-3-oxo-1H-benzo[8,8a][1]benzopyrano[2,3-e]isoindole]	0.04 (≈ 0.0902 µM)		20 (≈ 45.1 µM)
C[C@H]1CC[C@H]2C(C)(C)[C@@H](O)CC[C@]23Oc2c(c(O)cc4c2C(=O)N(C)C4=O)C[C@]13C [Compound (32b), (6aR, 7S, 9aS, 11S, 13aS)-2,3,6,6a, 7,8,9,9a, 10, 11, 12, 13-dodecahydro-5, 11-dihydroxy-2,6a, 7, 10, 10-pentamethyl-13-dioxo-1H-benzo[8,8a][1]benzopyrano[2,3-e]isoindole]	0.04 (≈ 0.0967 µM)	10 (≈ 24.2 µM)	
CCCCN1C(=O)c2cc(O)c3c(c2C1=O)O[C@@]12CC[C@H](O)C(C)(C)[C@@H]1CC[C@H](C)[C@@]2(C)C3 [Compound (32c), (6aR, 7S, 9aS, 11S, 13aS)-2-butyl-2,3,6,6a, 7,8,9,9a, 10, 11, 12, 13-dodecahydro-5, 11-dihydroxy-6a, 7, 10, 10-tetramethyl-13-dioxo-1H-benzo[8,8a][1]benzopyrano[2,3-e]isoindole]	0.04 to 0.08 (≈ 0.0878 to 0.176 µM)	5 (≈ 11 µM)	
C[C@H]1CC[C@H]2C(C)(C)[C@@H](O)CC[C@]23Oc2c(c(O)cc4c2CNC4)C[C@]13C [Compound (34a), (6aR, 7S, 9aS, 11S, 13aS)-2,3,6,6a, 7,8,9,9a, 10, 11, 12, 13-dodecahydro-5, 11-dihydroxy-6a, 7,10,10-tetramethyl-1H-benzo[8,8a][1]benzopyrano[2,3-e]isoindole]	0.04 (≈ 0.108 µM)		> 10
C[C@H]1CC[C@H]2C(C)(C)[C@@H](OC(=O)c3cccnc3)CC[C@]23Oc2c(c(O)cc4c2CNC4=O)C[C@]13C [Compound (35a), (6aR, 7S, 9aS, 11S, 13aS)-2,3,6,6a, 7,8,9,9a, 10, 11, 12, 13-dodecahydro-5-hydroxy-6a, 7, 10, 10-tetramethyl-3-oxo-11-[(3-pyridyl)carbonyloxy]-1H-benzo[8,8a][1]benzopyrano[2,3-e]isoindole]	0.001 (≈ 0.00204 µM)		10 (≈ 20.4 µM)
C[C@H]1CC[C@H]2C(C)(C)[C@@H](OC(=O)c3cnccn3)CC[C@]23Oc2c(c(O)cc4c2CNC4=O)C[C@]13C [Compound (35b), (6aR, 7S, 9aS, 11S, 13aS)-2,3,6,6a, 7,8,9,9a, 10, 11, 12, 13-dodecahydro-5-hydroxy-6a, 7, 10, 10-tetramethyl-3-oxo-11-[(2-pyrazyl)carbonyloxy]-1H-benzo[8,8a][1]benzopyrano[2,3-e]isoindole]	0.002 to 0.004 (≈ 0.00407 to 0.00814 µM)	10 (≈ 20.3 µM)	
C[C@H]1CC[C@H]2C(C)(C)C=CC[C@]23Oc2c(c(O)cc4c2CNC4=O)C[C@]13C [Compound (41a), (6a R, 7 S, 9a S, 13a S)-2,3,6,6a, 7,8,9,9a, 10, 13-decahydro-5-hydroxy-6a, 7, 10, 10-tetramethyl-3-oxo-1H-benzo[8,8a][1]benzopyrano[2,3-e]isoindole]	0.002 (≈ 0.00544 µM)		5 (≈ 13.6 µM)
C[C@H]1CC[C@H]2C(C)(C)CCC[C@]23Oc2c(c(O)cc4c2CNC4=O)C[C@]13C [Compound (42), (6a R, 7 S, 9a S, 13a S)-2,3,6,6a, 7,8,9,9a, 10, 11, 12, 13-dodecahydro-5-hydroxy-6a, 7, 10, 10-tetramethyl-3-oxo-1H-benzo [8,8a] [1] benzopyrano[2,3-e]isoindole]	0.002 (≈ 0.00541 µM)		5 (≈ 13.5 µM)
C[C@H]1CC[C@H]2C(C)(C)[C@H]3O[C@H]3C[C@]23Oc2c(c(O)cc4c2CNC4=O)C[C@]13C [Compound (43a), (6a R, 7 S, 9a S, 11 R, 12 S, 13a S)-11,12-epoxy-2,3,6,6a, 7,8,9,9a, 10, 11, 12, 13-dodecahydro-5-hydroxy-6a, 7, 10, 10-tetramethyl-3-oxo-1H-benzo[8,8a][1]benzopyrano[2,3-e]isoindole]	0.001 to 0.002 (≈ 0.00261 to 0.00522 µM)		40 (≈ 104 µM)
C[C@H]1CC[C@H]2C(C)(C)[C@@H](N)CC[C@]23Oc2c(c(O)cc4c2CNC4=O)C[C@]13C [Compound (47a), (6aR, 7S, 9aS, 11S, 13aS)-11-amino-2,3,6,6a, 7,8,9,9a, 10, 11, 12, 13-dodecahydro-5-hydroxy-6a, 7, 10, 10-tetramethyl-3-oxo-1H-benzo[8,8a][1]benzopyrano[2,3-e]isoindole]	0.02 (≈ 0.052 µM)		> 10
CC(=O)N[C@H]1CC[C@@]23Oc4c(c(O)cc5c4CNC5=O)C[C@]2(C)[C@@H](C)CC[C@H]3C1(C)C [Compound (47b), (6aR, 7S, 9aS, 11S, 13aS)-11-acetylamino-2,3,6,6a, 7,8,9,9a, 10, 11, 12, 13-dodecahydro-5-hydroxy-6a, 7, 10, 10-tetramethyl-3-oxo-1H-benzo[8,8a][1]benzopyrano[2,3-e]isoindole]	0.02 (≈ 0.0469 µM)		> 10
C[C@H]1CC[C@H]2C(C)(C)[C@@H](NS(C)(=O)=O)CC[C@]23Oc2c(c(O)cc4c2CNC4=O)C[C@]13C [Compound (47c), (6aR, 7S, 9aS, 11S, 13aS)-2,3,6,6a, 7,8,9,9a, 10, 11, 12, 13-dodecahydro-5-hydroxy-6a, 7, 10, 10-tetramethyl-11-methanesulfonylamino-3-oxo-1H-benzo[8,8a][1]benzopyrano[2,3-e]isoindole]	0.01 (≈ 0.0216 µM)		> 10
C[C@H]1CC[C@H]2C(C)(C)[C@@H](NS(=O)(=O)c3ccccc3)CC[C@]23Oc2c(c(O)cc4c2CNC4=O)C[C@]13C [Compound (47d), (6aR, 7S, 9aS, 11S, 13aS)-2,3,6,6a, 7,8,9,9a, 10, 11, 12, 13-dodecahydro-5-hydroxy-6a, 7, 10, 10-tetramethyl-11-phenylsulfonylamino-3-oxo-1H-benzo[8,8a][1]benzopyrano[2,3-e]isoindole]	0.003 (≈ 0.00572 µM)		5 to 10 (≈ 9.53 to 19.1 µM)
